Experimental data taken from US7056693B2 (priority 1998, dated 2006).

Tested on: National Cancer Institute's 60 cell line
Format: cell-based

In the case of “2-(2′-amino-3′-methoxyphenyl)-oxanaphthalen-4-one [PDO9859]”, the “Activity profile in the 60 cell line database compared with LF” value is reported as “activity profile that is similar to LF”.
